Assay results reported in patent publication US8557225B2, “Solution and method for cleaning tooth enamel” (priority 2008, dated 2013).

Legend:
[1] = citric acid solution applied over the enamel; type: in vivo; conditions: 6% citric acid in the improved solution, over the teeth enamel
Excerpt: Citric acid as incorporated in the present disclosure is an irrigating substance classified as a chelating agent which, due to its low pH, reacts with the metallic ions in the hydroxyapatite crystals in order to produce a metallic chelating agent which reacts with the chelating agent's terminal groups when removing calcium ions of the dentine, forming a ring. The dentine softens changing the solubility and permeability aspects of the tissue, especially the peritubular dentine, rich in hydroxyapatite, increasing the diameter of the exposed dental tubes. These chelating agent properties also provide a great affinity as thus used due to ferrous alkali characteristics of the dental structure. Also, this chelating agent is naturally found inside the body, thus making it biologically more acceptable than other acids. Citric acid is effective in altering the hydroxyapatite solubility; it has been used in several concentrations, from 0.6 up to 50% by weight. Its effect is very fast and it only requires five seconds to apply a 6% solution over the enamel to remove the undesired dental covering.
This action is favorably strengthened when citric acid (C6O7H8) is included in the composition at the approximate 6% (weight percent) level. (Tables 1 and 2). […]

[2] = 6% solution applied over the enamel; cited from earlier work

O=C(O)CC(O)(CC(=O)O)C(=O)O [Citric acid, citric acid]
time required after applying for dissolving the organic matter [1]: thirty seconds
time required to remove the undesired dental covering [2]: five seconds
